For data set [1], the system named is mouse (Albino Swiss CD-1). As to conditions: i.v., data from literature; cited from earlier work.
A further data set addresses T1, dog renal Na,K-ATPase (Canis lupus familiaris, UniProt P50997).
T1 construct: incubated with 0.3 μg of purified dog kidney enzyme; from tissue; host or cells: dog kidney outer medulla
The data set can be described thus: Inhibition of dog renal Na,K-ATPase activity (32P-ATP release). In kind it is biochemical. The method, then: Kidneys were sliced and the outer medulla was dissected, pooled and suspended (1 g/10 ml) in a sucrose-histidine solution, containing 250 mM sucrose, 30 mM histidine and 5 mM EDTA, pH 7.2 and homogenized. […] The pellet was suspended in the sucrose-histidine buffer and incubated for 20 min with a sodium-dodecyl-sulphate (SDS) solution dissolved in a gradient buffer, containing 25 mM imidazole and 1 mM EDTA, pH 7.5. […] The pellet was suspended in the gradient buffer.
Increasing concentrations of the standard ouabain, or tested compound, were incubated with 0.3 μg of purified dog kidney enzyme for 10 min at 37° C. in 120 μl final volume of a medium, containing 140 mM NaCl, 3 mM MgCl2, 50 mM Hepes-Tris, 3 mM ATP, pH 7.5. […] The inhibitory activity was expressed as percent of the control samples carried out in the absence of ouabain or tested compound.

For the next data set, the system named is guinea pig. Description: Haemodynamics: inotropic and lethal dose in guinea pig. In kind it is in vivo. How it is done: Guinea-pigs (400-450 g) were anaesthetized with urethane (1.5 g/kg ip). A microtip pressure transducer was introduced into the left ventricle through the right carotid artery to measure ventricular pressure (LVP); the transducer was coupled with a transducer amplifier. Recordings were fed to a polygraph and analyzed. A polythene cannula was inserted into a jugular vein for drug infusion. After a stabilization period, the test substance was injected at the rate of 0.16 ml/min for 90 min (Micheletti R et al. J Pharmacol Exp Ther 2002; 303:592-600).
The following parameters were obtained: heart rate (HR), left ventricular pressure (LVP), maximal velocity of pressure rise (+dP/dtmax) and decay (−dP/dtmax), ECG. For inotropy, the time elapsed until +dP/dtmax increased by 80% was identified in order to determine the ED80 (dose increasing basal +dP/dtmax by 80%). The time to the maximum increase in +dP/dtmax was also identified to determine the maximum effective dose, EDmax. Lusitropy was characterized by the dose inducing the maximum decrease in −dP/dtmax, (EDmax). As indexes of toxicity, the dose administered until the onset of arrhythmias and the dose inducing death (LD) were calculated. The safety ratio for the tested compound was also calculated as the ratio between LD and ED80.

In another data set the target is T2, SERCA2a (Canis lupus familiaris, UniProt O46674).
T2 construct: pre-incubated with 2 μg of microsomes; from tissue; host or cells: dog heart left ventricle, SR microsomes
Conditions: literature (Rocchetti 2005; Ferrandi 2013); cited from earlier work.

The next data set concerns STZ diabetic rats. Description: Haemodynamics in streptozotocin diabetic rats (echocardiography). Conditions: 20 mg/kg os, after treatment, mean ± SD, n = 12. The format is in vivo, rat. The method, then: Sprague Dawley male rats (150-175 g) were made diabetic by a single injection into the tail vein of a solution of streptozotocin (STZ, 50 mg/kg, Sigma-Aldrich), freshly prepared in 0.1 M sodium citrate buffer, pH 4.5. Control rats received citrate buffer. Fasting glycaemia was measured after 1 week and rats with values >400 mg/dl were considered diabetic.
Eight-nine weeks after STZ injection, rats were submitted to transthoracic echocardiographic and Doppler evaluation performed under pentobarbital anesthesia. Two-dimensionally guided M-mode recordings were used to obtain short-axis measurements of left ventricular end-diastolic diameter (LVEDD), left ventricular end-systolic diameter (LVESD), posterior (PW) and septal (SW) diastolic wall thickness according to the American Society of Echocardiography guidelines (Lang R M et al. Eur J Echocardiography 2006; 7:79-108). Fractional shortening was calculated as FS=(LVEDD-LVESD)/LVEDD. Relative wall thickness was calculated as PWTd+IVSTd/LVEDD.
Mitral inflow was measured by pulsed Doppler at the tips of mitral leaflets from an apical 4-chamber view to obtain early and late filling velocities (E, A) and deceleration time of early filling velocity (DT). The deceleration slope was calculated as E/DT ratio. The mitral deceleration index was calculated as DT/E ratio.
Tissue Doppler Imaging (TDI) was evaluated from the apical 4-chamber view to record septal mitral annular movements, i.e., peak myocardial systolic (s′) and early and late diastolic velocity (e′ and a′).
Compound CVie 101 was orally administered to STZ injected rats at the dose of 20 mg/kg and echocardiographic parameters were measured after 1 h.

For data set [2] the following is noted: literature (Packer 2016, 2018); cited from earlier work.

SMILES strings stand for the structures. pIC50: −log10 of the molar value.

T2 sequence (O46674 whole entry): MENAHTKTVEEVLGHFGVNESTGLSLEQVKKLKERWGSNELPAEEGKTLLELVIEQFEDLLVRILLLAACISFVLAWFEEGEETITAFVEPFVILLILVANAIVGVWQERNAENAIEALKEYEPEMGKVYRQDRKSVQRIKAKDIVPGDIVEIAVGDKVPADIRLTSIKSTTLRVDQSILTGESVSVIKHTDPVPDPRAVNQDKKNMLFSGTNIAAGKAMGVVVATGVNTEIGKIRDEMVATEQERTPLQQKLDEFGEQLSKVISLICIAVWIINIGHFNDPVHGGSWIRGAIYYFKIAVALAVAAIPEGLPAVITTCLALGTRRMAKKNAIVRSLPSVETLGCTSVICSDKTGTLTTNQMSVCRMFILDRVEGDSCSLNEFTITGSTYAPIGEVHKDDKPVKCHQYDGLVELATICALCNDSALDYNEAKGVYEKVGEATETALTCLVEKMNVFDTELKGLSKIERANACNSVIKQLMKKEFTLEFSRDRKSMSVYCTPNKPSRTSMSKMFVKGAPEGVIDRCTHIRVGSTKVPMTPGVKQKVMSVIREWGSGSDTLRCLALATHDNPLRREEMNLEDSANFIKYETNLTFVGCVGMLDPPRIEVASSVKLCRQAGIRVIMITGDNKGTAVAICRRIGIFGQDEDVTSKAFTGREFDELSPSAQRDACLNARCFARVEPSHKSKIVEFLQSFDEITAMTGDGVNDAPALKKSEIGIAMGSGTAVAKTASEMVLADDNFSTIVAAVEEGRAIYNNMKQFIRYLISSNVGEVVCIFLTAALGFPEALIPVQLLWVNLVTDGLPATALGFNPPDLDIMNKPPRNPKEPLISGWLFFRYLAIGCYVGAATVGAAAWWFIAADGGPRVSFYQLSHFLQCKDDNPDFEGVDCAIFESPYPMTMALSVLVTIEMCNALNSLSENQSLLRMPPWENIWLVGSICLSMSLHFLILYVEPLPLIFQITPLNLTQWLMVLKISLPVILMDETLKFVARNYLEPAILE

As a reminder, the LD50 is the dose at which mortality reaches 50%. As usually defined, the pIC50 is the negative decadic logarithm of the IC50, by convention in mol/L. The low end stands for a large IC50, the high end for a small IC50. As for `C[C@H]1O[C@@H](O[C@H]2[C@@H](O)C[C@H](O[C@H]3[C@@H](O)C[C@H](O[C@H]4CC[C@@]5(C)[C@H](CC[C@@H]6[C@@H]5C[C@@H](O)[C@]5(C)[C@@H](C7=CC(=O)OC7)CC[C@]65O)C4)O[C@@H]3C)O[C@@H]2C)C[C@H](O)[C@@H]1O` [Digoxin, reference compound], the LD50 in data set [1] was 7.7 mg/kg. At dog renal Na,K-ATPase, the pIC50 was 6.52. In the data set on guinea pig (guinea pig, in vivo), this molecule displayed an ED80 of 0.69 mg/kg. The same molecule had a Lethal dose in the data set on guinea pig (i.v. infusion […]) of 1.20 mg/kg. Besides, the SERCA2a activity result on SERCA2a is listed as “failed to stimulate”. In addition, in the data set on STZ diabetic rats, the “A (late filling velocity of mitral inflow)” value was determined as 0.92 ± 0.1 m/s, the “A′ (TDI late relaxation velocity)” value was 35.8 ± 5 cm/s, the “CO (cardiac output)” value was determined as 246.8 ± 72 mL/min and the “DT (deceleration time of E wave)” value worked out at 39.2 ± 9.34 ms. For the same molecule, in the data set on STZ diabetic rats, the “E (early filling velocity of mitral inflow)” value is 1.02 ± 0.13 m/s, the “E/DT (deceleration slope)” value worked out at 27.9 ± 9.8 m/s2, the “E′ (TDI early relaxation velocity)” value came to 23.7 ± 1.35 cm/s and the “FS (fractional shortening)” value worked out at 47.2 ± 3.24 %. Also, in the data set with STZ diabetic rats, the “HR (heart rate)” value worked out at 308 ± 39 beat/min, the “SV (stroke volume)” value turned out to be 0.80 ± 0.19 ml/beat and the “S′ (TDI contraction velocity)” value was 26.7 ± 2.77 cm/s. Besides, in data set [2], the “serum concentration ranges at which digoxin displays its beneficial effects” value was 0.5 to 0.7 ng/mL and the “serum threshold level above which increased risk of death, mainly due to arrhythmias, has been observed” value was 0.9 ng/mL.

The record behind these values is patent US11730746B2, “17beta-heterocyclyl-digitalis like compounds for the treatment of heart failure” (priority 2018, dated 2023).
